In ChEMBL document CHEMBL1201862, “PubChem BioAssay data set” (2004):
The source made the active and inactive calls.

Key:
Large T antigen = Large T antigen (Simian virus 40, UniProt P03070); assay type: functional, Betapolyomavirus macacae;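 note: Confirmatory-stage PubChem screen for compounds that inhibit SV40 T antigen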
Jurkat = assay: blockers of NF-kB activation in T cells – Jurkat, luciferase reporter, luminescence, B- and T-cell, dose response (AID 489004); assay type: functional, cell-based; conditions: Homo sapiens;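 note: NF-kB luciferase reporter Jurkat cells stimulated with PMA plus ionomycin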
[1] = molecular target: T1, Rac GTPase-activating protein 1 (Homo sapiens, UniProt Q9H0H5); assay: blockers of MgcRacGAP-driven Rac1 GTP hydrolysis – biochemical, ADP Hunter fluorescence, primary and confirmatory, confirmation (AID 624330); assay type: functional
T1 sequence (Q9H0H5 whole entry): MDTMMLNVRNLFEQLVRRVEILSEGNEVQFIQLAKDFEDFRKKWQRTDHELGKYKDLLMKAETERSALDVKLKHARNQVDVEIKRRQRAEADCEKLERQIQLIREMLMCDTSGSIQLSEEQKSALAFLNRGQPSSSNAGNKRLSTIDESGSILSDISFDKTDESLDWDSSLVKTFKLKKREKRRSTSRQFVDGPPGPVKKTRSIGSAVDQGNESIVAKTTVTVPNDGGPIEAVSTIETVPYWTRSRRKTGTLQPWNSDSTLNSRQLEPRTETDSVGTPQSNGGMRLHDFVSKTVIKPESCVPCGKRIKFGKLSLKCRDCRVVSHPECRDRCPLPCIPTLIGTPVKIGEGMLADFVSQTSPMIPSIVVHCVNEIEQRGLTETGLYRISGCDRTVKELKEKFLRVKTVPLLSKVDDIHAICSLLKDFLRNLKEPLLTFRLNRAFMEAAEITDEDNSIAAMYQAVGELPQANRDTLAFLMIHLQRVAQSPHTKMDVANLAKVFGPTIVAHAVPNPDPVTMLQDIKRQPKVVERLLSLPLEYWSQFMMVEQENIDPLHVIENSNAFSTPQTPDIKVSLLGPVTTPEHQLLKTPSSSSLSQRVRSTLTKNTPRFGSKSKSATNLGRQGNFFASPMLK

HEK293 = assay: EBV LMP1 TES2 canonical NF-kB signalling blockers – cell-based, HEK293, luciferase, cherry-pick, dose response (AID 588343); assay type: functional; conditions: Homo sapiens
[2] = HEK-293T viability loss, compound-treated – cell-based, uHTS hits, cytotoxicity control for B/T-cell NF-kB inhibitor project, dose response (AID 489019); assay type: functional;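 note: IC50 reflects cytotoxicity as loss of cell viability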
BJ [3] = assay: BJ-TERT fibroblast viability loss – cell-based, RAS-independent, luminescence, dose response (AID 1933); assay type: functional; conditions: Homo sapiens
[4] = molecular target: T2, Microphthalmia-associated transcription factor (Homo sapiens, UniProt O75030); assay: reducers of TRPM1 reporter luminescence, concentration series – cell-based, SK-MEL-5, cherry-picked, set 3, MITF inhibitor project, dose response (AID 493073); assay type: functional;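 note: SK-MEL-5 melanoma cells with luciferase driven by the MITF target TRPM1 promoter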
T2 sequence (O75030 whole entry): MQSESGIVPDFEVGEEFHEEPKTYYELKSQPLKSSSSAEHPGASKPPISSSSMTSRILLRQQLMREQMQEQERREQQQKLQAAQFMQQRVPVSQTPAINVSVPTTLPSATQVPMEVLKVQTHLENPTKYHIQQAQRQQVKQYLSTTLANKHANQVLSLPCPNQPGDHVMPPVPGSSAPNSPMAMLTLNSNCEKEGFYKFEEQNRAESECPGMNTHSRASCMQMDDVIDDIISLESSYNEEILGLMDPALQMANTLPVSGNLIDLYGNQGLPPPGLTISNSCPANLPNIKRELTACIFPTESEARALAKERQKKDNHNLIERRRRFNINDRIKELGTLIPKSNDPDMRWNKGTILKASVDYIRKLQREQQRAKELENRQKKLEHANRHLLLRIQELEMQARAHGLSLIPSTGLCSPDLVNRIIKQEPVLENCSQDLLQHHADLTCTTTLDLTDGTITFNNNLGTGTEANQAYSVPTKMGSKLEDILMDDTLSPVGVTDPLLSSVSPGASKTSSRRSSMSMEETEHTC

BJ [5] = assay: BJ-TERT-LT-ST fibroblast viability loss – cell-based, RAS-independent, luminescence, dose response (AID 1935); assay type: functional; conditions: Homo sapiens;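 note: BJ fibroblasts immortalized with TERT plus LT and ST oncogenes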
[6] = DRD fibroblast viability loss – cell-based, non-viral oncogenic, luminescence, dose response (AID 1934); assay type: functional; conditions: Homo sapiens
BJ [7] = assay: cells; assay type: functional, cell-based; conditions: Homo sapiens
BJ [8] = assay: growth inhibition of engineered Ras-driven BJ cells – cell-based, alamar blue fluorescence, cherrypicked samples, dose response (AID 2631); assay type: functional; conditions: Homo sapiens;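 note: confirmatory dose-response assay in RAS-dependent BJ fibroblasts engineered with TERT, LT and ST, with cytotoxicity read by fluorescence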
INS1 = assay: INS-1E survival protection against cytokine death – cell-based, luminescence, retest, dose response (AID 449756); assay type: functional; conditions: Rattus norvegicus;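 note: cell death triggered by IL-1 beta plus TNF-alpha plus IFN-gamma mixture; protective hits raise ATP signal compared with cytokine alone wells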
[9] = molecular target: T3, Sentrin-specific protease 7 (Homo sapiens, UniProt Q9BQF6); assay type: functional;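 note: Luminescence-based dose-response confirmation of ultra-high-throughput screening hits, measuring inhibition of SENP7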
T3 sequence (Q9BQF6 whole entry): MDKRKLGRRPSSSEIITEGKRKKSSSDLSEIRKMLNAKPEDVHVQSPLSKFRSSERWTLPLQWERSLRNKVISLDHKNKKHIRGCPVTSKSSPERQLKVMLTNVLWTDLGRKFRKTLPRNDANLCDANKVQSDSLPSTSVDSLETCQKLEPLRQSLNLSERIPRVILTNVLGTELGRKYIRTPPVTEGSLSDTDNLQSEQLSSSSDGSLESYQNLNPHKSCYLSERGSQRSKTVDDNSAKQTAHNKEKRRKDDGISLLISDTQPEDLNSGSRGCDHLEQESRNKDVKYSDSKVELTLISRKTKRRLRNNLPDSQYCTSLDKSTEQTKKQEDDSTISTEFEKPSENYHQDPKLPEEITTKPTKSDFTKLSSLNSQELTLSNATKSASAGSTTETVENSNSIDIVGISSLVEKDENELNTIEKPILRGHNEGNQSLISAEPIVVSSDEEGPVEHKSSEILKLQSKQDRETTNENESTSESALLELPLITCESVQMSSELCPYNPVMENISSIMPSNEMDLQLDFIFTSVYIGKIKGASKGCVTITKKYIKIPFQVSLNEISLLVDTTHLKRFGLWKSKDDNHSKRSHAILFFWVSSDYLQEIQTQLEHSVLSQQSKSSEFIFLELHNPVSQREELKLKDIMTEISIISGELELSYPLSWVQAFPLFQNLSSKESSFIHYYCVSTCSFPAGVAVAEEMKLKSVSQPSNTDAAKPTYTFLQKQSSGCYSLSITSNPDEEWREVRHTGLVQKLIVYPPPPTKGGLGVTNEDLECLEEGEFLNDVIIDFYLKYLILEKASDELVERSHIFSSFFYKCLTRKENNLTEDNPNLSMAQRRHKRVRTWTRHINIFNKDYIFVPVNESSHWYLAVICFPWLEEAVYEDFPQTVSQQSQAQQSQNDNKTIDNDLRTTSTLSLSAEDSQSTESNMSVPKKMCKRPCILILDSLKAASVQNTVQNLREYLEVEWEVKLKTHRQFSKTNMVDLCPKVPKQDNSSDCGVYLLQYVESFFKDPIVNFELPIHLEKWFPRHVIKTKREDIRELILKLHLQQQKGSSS

Caspase-3 = molecular target: T4, Caspase-3 (Homo sapiens, UniProt P42574); assay type: functional;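 note: Dose-response selectivity test against caspase-3 for candidate inhibitors of sentrin-specific proteases (SENPs)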
T4 sequence (P42574 whole entry): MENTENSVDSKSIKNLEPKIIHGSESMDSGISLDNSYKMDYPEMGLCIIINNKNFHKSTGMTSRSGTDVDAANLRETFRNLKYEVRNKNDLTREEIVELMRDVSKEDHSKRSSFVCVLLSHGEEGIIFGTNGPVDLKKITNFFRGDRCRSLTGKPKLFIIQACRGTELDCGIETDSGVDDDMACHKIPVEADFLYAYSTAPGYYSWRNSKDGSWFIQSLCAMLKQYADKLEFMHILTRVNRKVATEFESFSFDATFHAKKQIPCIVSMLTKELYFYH

[10] = molecular target: T5, Sentrin-specific protease 8 (Homo sapiens, UniProt Q96LD8); assay type: functional;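 note: luminescence read-out of SENP8 inhibition, dose-response confirmation following an ultra-high-throughput screen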
T5 sequence (Q96LD8 whole entry): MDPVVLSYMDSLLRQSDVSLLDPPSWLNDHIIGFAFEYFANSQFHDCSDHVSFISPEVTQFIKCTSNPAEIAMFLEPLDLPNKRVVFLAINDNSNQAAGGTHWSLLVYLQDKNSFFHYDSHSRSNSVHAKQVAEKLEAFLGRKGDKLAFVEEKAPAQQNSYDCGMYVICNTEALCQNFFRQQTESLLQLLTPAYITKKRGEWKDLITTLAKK

[11] = molecular target: T6, Sentrin-specific protease 6 (Homo sapiens, UniProt Q9GZR1); assay type: functional;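 note: Luminescence-based dose-response confirmatory assay of SENP6 inhibition, following up an ultra-high-throughput screen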
T6 sequence (Q9GZR1 whole entry): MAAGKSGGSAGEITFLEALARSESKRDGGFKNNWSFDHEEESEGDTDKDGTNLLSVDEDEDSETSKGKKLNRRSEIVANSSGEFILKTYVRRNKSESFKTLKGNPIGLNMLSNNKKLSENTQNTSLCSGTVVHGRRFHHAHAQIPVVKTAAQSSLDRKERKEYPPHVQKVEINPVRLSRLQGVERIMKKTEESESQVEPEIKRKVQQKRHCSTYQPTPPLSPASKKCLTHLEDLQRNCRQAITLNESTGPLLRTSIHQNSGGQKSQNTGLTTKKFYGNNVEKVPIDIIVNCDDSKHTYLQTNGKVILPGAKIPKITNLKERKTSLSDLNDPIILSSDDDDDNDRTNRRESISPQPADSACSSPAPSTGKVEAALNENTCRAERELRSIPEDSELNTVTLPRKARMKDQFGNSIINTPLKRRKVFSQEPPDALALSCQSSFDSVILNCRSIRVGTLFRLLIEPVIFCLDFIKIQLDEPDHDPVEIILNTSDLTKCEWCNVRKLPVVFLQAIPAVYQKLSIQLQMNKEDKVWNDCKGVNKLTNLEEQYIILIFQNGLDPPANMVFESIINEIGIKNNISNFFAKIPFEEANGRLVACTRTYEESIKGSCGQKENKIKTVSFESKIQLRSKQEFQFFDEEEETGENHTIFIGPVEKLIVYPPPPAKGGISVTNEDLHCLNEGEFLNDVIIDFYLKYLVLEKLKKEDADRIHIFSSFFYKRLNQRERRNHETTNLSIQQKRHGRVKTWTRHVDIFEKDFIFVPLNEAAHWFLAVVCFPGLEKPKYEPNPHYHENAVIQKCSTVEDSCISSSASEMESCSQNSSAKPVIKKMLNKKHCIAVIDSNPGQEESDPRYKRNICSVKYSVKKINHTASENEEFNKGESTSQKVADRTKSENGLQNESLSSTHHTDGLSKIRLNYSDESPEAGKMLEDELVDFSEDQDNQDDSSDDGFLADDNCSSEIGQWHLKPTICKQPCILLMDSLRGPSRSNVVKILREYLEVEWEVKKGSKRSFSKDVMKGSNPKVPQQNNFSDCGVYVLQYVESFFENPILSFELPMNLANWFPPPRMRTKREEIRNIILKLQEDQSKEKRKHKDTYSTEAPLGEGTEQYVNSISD

[12] = A549 cell cytotoxicity, dose response, cytotoxicity control, plate reader, cherry-pick, antagonist series (AID 743412); assay type: functional, cell-based
[13] = blockade of melanocortin 4 receptor signaling – cell-based, plate reader, cherry pick, counter-screen for LGR2 antagonist project, dose response (AID 743444); assay type: functional;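 note: transfected HEK 293 cells stimulated with alpha-MSH peptide; potency of inhibitors of the alpha-MSH evoked signal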
[14] = molecular target: T7, Nuclear receptor subfamily 0 group B member 1 (Homo sapiens, UniProt P51843); assay type: functional, cell-based;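 note: HEK293T cells transfected with SF-1 and DAX-1 plus StAR promoter luciferase reporter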
T7 sequence (P51843 whole entry): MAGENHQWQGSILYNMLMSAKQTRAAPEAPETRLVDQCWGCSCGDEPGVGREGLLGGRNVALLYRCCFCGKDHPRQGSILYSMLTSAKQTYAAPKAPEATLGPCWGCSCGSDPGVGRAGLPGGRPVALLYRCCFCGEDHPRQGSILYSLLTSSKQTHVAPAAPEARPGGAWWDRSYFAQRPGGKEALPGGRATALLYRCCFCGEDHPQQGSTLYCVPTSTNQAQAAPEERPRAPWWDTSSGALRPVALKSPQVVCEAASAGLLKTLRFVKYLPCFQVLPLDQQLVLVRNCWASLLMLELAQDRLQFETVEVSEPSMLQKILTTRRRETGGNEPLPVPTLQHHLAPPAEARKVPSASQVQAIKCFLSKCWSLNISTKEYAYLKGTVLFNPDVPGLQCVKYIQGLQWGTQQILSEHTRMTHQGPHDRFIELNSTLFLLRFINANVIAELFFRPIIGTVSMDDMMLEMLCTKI

[15] = blockers of bursicon-stimulated LGR2 cAMP reporter – cell-based, HEK293, CRE-luciferase reporter, cherry pick, set 2, dose response (AID 743343); assay type: functional;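 note: transfected cells were stimulated with diluted bursicon conditioned medium after compound addition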
cells = assay type: functional, cell-based

Sequence of Large T antigen (P03070 whole entry): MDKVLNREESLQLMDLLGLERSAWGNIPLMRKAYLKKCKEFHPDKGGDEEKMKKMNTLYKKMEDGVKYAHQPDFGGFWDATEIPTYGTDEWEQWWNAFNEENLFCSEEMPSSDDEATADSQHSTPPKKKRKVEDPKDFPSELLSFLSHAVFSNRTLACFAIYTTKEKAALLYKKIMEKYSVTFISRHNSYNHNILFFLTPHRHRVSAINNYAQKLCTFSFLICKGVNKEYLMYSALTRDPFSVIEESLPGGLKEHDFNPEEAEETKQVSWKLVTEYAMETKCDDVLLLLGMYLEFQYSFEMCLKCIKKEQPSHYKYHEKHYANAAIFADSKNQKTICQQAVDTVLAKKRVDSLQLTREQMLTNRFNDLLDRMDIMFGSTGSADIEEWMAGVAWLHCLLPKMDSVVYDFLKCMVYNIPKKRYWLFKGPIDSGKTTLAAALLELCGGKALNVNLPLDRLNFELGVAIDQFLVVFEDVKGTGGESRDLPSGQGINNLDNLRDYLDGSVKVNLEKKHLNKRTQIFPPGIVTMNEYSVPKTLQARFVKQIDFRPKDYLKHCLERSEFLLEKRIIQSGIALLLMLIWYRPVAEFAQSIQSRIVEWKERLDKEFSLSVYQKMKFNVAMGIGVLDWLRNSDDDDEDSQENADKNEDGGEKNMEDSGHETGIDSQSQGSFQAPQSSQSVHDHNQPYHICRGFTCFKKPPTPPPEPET

Compound: COc1cc(/C=N/NC(=S)Nc2cccc(C(=O)O)c2)ccc1O
- IC50 (Large T antigen): 22.1 µM (active)
- IC50 (Jurkat): 7.92 µM (active)
- IC50 [1]: 44.9 µM (active)
- AC50 (HEK293): 1.9 µM (active)
- IC50 [2]: > 80 µM (inactive)

Compound: COc1cc(OC)cc(C(=O)N[C@H](C(=O)Nc2nc3ccccc3[nH]2)C(C)C)c1
- EC50 (BJ [3]): 1.48 µM (inconclusive)
- AC50 [4]: 2.44 µM (active)
- EC50 (BJ [5]): 1.51 µM (inconclusive)
- EC50 [6]: 1.91 µM (active)
- EC50 (BJ [7]): 2.73 µM (active)
- EC50 (BJ [8]): 0.553 µM (active)

Compound: O=S(=O)(c1ccc(NC(=S)NCc2cccnc2)cc1)N1CCCCC1
- EC50 (BJ [3]): > 150 µM (not active)
- EC50 (BJ [5]): 0.767 µM (active)
- EC50 [6]: 20.5 µM (active)
- AC50 (INS1): 1.11 µM (active)
- EC50 (BJ [7]): 0.594 µM (inconclusive)
- EC50 (BJ [8]): 0.623 µM (active)

Compound: Cc1ccc(CNc2c([N+](=O)[O-])nn(-c3ccc4c(c3)OCCO4)[n+]2[O-])cc1
- IC50 [9]: 4.7 µM (active)
- IC50 (Caspase-3): 66.5 µM (active)
- IC50 [10]: > 100 µM (inactive)
- IC50 [11]: > 100 µM (inactive)

Compound: CC(=O)Oc1cccc(/C=C2\Sc3ccccc3C2=O)c1
- IC50 [9]: 3.15 µM (active)
- IC50 (Caspase-3): 24.9 µM (active)
- IC50 [10]: 3.32 µM (active)
- IC50 [11]: 3.99 µM (active)

Compound: CC(C)(C)C(=O)OCc1nc(-c2ccc(F)cc2)cs1
- IC50 [9]: 7.4 µM (active)
- IC50 (Caspase-3): 28.3 µM (active)
- IC50 [10]: 55.3 µM (active)
- IC50 [11]: 28.9 µM (active)

Compound: CCOc1ccc(C(=O)Nc2nnc(SCC(=O)NCC3CCCO3)s2)cc1 (stereo not given)
- AC50 [12]: > 52 µM (inactive)
- AC50 [13]: 3.95 µM (active)
- IC50 [14]: > 67.5 µM (inactive)
- AC50 [15]: 3.43 µM (active)
- IC50 (cells): > 67.5 µM (inactive)
- AC50 (HEK293): 1.52 µM (active)
